Test results published in patent publication EP0159396B1, “Carboxyalkyl peptide derivatives” (G.D. Searle & Co., priority 1984, dated 1985).

Test system: rat model of inflammatory arthritis
Experiment: rat model of inflammatory arthritis induced by Type II collagen (Trentham et al.)
Type: in vivo
Settings: arthritic rats' paws, test compound 100 mg/kg i.p. twice daily for 21 days, prednisolone 0.625 mg/kg b.i.d.
Description: The therapeutic effectiveness is assessed in the rat model of inflammatory arthritis described by Trentham et al. (1977). In this model, the arthritis, induced by an intradermal injection of Type II collagen, generally develops in both hind paws and the progression and severity of the lesion are monitored by physical measurements of the malleolar width and ankle extensibility.
The compound of example II in the present specification was administered by intraperitoneal injections at 100 mg/kg twice daily for 21 days commencing seven days after the injection of the disease.
Drugs (Example 1 or prednisolone) and vehicle were administered to groups of 10 rats each. Physical measurements on the rat paws were made weekly for four weeks and consisted of (a) the distance between the medial and lateral malleolus (malleolar width) and (b) the ankle extension which was measured by applying a standard force to the rat paw and measuring the angle formed between the flexor surface of the foot and tibia. Evidence of a therapeutic effect was denoted by a significant reduction in malleolar width and […] a significant increase in ankle extension. Both measurements were carried out on apparatus designed for the purpose. Area-under-the-curve data from these time course experiments was examined by non-parametric statistical analysis. The prednisolone standard was given at a dose of 0.625 mg/kg b.i.d. Prednisolone was chosen as a standard since steroids are known to be effective both clinically in Rheumatoid Arthritis and in animal models of arthritis.

[1] = experiment number 1, area-under-the-curve of weekly measurements over four weeks

SMILES | MALLEOLAR WIDTH, PERCENTAGE CHANGE FROM CONTROL [1] [%] | ANGLE EXTENSION, PERCENTAGE CHANGE FROM CONTROL (experiment number 1) [%] | ANGLE EXTENSION, PERCENTAGE CHANGE FROM CONTROL (experiment number 2) [%] | MALLEOLAR WIDTH, PERCENTAGE CHANGE FROM CONTROL (experiment number 2) [%] | ANGLE EXTENSION, PERCENTAGE CHANGE FROM CONTROL (experiment number 3) [%] | MALLEOLAR WIDTH, PERCENTAGE CHANGE FROM CONTROL (experiment number 3) [%] | ANGLE EXTENSION, PERCENTAGE CHANGE FROM CONTROL, MEAN (mean of experiments 1-3) [%] | MALLEOLAR WIDTH, PERCENTAGE CHANGE FROM CONTROL, MEAN (mean of experiments 1-3) [%] | MALLEOLAR WIDTH, […] FROM CONTROL [1] [%] | ANGLE EXTENSION, […] FROM CONTROL (experiment number 1) [%] | ANGLE EXTENSION, […] FROM CONTROL (experiment number 2) [%] | MALLEOLAR WIDTH, […] FROM CONTROL (experiment number 2) [%] | ANGLE EXTENSION, […] FROM CONTROL (experiment number 3) [%] | MALLEOLAR WIDTH, […] FROM CONTROL (experiment number 3) [%] | ANGLE EXTENSION, […] FROM CONTROL, MEAN (mean of experiments 1-3) [%] | MALLEOLAR WIDTH, […] FROM CONTROL, MEAN (mean of experiments 1-3) [%]
CNC(=O)[C@H](Cc1ccc(OC)cc1)NC(=O)[C@H](CC(C)C)N[C@H](CCNC(=O)OCc1ccccc1)C(=O)O [Example 1, N-[3-N-(Benzyloxycarbonyl)amino-I-(R)-carboxypropyl]-L-leucyl-O-methyl-L-tyrosine N-Methylamide] | 65 | 66 | 39 | 43 | 39 | 41 | 48 | 50 | – | – | – | – | – | – | – | –
C[C@]12C=CC(=O)C=C1CC[C@@H]1[C@@H]2[C@@H](O)C[C@@]2(C)[C@H]1CC[C@]2(O)C(=O)CO [Prednisolone] | – | – | – | – | – | – | – | – | 98 | 100 | 96 | 96 | 95 | 97 | 97 | 97
